# Assay results published in ChEMBL document CHEMBL1133189, “Novel conformationally constrained tropane analogues by 6-endo-trig radical cyclization and stille coupling - switch of activity toward the serotonin and/or norepinephrine transporter” (J Med Chem, 2000).
# Assays:
# [1] = molecular target: T1, Sodium-dependent serotonin transporter (Homo sapiens, UniProt P31645); test: Compound was evaluated for binding affinity using [125I]RTI-55 as a radioligand in HEK-hSERT cells expressing human serotonin transporter; assay type: cell-based
# [2] = molecular target: T2, Sodium-dependent noradrenaline transporter (Homo sapiens, UniProt P23975); test: Compound was evaluated for inhibition of [3H]NE uptake in HEK-hNET cells expressing Human norepinephrine transporter; assay type: cell-based
# [3] = molecular target: T2, Sodium-dependent noradrenaline transporter; test: Compound was evaluated for binding affinity using [125I]RTI-55 as a radioligand in HEK-hNET cells expressing human norepinephrine transporter; assay type: cell-based
# [4] = molecular target: T3, Sodium-dependent dopamine transporter (Homo sapiens, UniProt Q01959); test: Compound was evaluated for inhibition of [3H]DA uptake in HEK-hDAT cells expressing Human dopamine Transporter; assay type: cell-based
# [5] = molecular target: Sodium-dependent dopamine transporter (Rattus norvegicus, UniProt P23977); test: Inhibition of reuptake of [3H]DA at Dopamine transporter (DAT)
# [6] = molecular target: T3, Sodium-dependent dopamine transporter; test: Compound was evaluated for binding affinity to dopamine transporter using [125I]RTI-55 as a radioligand in HEK cells expressing human transporters.; assay type: cell-based, HEK293
# [7] = molecular target: T1, Sodium-dependent serotonin transporter; test: Compound was evaluated for inhibition of [3H]5-HT uptake in HEK-hSERT cells expressing Human serotonin transporter; assay type: cell-based
# [8] = molecular target: Sodium-dependent serotonin transporter (Rattus norvegicus, UniProt P31652); test: Inhibition of reuptake of [3H]5-HT at serotonin transporter
# [9] = molecular target: Norepinephrine transporter (Rattus norvegicus, UniProt Q9WTR4); test: Inhibition of reuptake of [3H]-NE at Norepinephrine transporter
# Chain of Norepinephrine transporter (Q9WTR4 whole entry): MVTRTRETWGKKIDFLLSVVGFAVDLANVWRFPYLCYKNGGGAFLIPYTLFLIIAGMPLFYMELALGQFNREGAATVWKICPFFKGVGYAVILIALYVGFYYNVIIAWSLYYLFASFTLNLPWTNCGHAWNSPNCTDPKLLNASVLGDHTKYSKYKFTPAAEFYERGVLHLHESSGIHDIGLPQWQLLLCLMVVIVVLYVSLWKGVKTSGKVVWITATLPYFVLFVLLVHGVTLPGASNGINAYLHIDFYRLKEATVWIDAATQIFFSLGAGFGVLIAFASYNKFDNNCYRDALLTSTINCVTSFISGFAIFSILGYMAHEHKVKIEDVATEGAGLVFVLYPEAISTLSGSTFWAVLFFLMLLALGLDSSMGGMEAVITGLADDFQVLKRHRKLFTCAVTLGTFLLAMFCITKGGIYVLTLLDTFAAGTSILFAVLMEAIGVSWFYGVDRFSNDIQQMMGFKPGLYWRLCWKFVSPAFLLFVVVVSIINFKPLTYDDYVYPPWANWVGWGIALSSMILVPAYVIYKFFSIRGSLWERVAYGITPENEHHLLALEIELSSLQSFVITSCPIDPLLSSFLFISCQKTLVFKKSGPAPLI
# T2 sequence (P23975 whole entry): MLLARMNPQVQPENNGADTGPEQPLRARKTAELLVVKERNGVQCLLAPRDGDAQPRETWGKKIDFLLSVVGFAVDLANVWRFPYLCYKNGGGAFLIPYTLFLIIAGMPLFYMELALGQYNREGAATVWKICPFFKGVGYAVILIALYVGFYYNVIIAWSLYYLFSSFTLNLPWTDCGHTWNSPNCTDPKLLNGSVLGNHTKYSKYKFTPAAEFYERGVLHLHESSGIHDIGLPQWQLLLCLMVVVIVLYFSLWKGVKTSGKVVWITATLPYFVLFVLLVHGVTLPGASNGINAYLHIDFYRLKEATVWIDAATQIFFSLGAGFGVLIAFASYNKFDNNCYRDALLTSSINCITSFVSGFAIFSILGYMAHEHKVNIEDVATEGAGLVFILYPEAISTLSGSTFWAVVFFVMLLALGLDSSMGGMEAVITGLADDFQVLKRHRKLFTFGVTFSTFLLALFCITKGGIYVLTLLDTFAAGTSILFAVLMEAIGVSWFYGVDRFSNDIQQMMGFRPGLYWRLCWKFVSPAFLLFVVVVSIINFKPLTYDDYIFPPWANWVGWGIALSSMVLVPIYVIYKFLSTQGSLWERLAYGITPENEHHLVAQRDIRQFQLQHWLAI
# T3 sequence (Q01959 whole entry): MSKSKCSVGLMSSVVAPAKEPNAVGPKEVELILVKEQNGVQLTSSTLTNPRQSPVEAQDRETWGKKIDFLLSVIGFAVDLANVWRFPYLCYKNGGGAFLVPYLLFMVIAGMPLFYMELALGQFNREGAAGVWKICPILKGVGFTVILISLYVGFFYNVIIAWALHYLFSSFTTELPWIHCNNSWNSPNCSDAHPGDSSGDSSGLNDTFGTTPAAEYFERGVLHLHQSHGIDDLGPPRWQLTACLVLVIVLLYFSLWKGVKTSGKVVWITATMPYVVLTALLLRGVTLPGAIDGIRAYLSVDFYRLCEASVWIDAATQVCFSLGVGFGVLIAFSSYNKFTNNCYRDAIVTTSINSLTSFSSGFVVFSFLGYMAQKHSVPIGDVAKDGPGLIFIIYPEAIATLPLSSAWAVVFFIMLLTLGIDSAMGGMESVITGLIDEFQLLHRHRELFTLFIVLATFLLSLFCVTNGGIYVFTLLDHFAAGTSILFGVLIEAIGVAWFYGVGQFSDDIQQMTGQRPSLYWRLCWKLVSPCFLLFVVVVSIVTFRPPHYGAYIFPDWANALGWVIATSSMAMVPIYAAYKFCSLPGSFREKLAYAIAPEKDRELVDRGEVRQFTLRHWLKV
# Chain of Sodium-dependent dopamine transporter (Rattus norvegicus, UniProt P23977) (P23977 whole entry): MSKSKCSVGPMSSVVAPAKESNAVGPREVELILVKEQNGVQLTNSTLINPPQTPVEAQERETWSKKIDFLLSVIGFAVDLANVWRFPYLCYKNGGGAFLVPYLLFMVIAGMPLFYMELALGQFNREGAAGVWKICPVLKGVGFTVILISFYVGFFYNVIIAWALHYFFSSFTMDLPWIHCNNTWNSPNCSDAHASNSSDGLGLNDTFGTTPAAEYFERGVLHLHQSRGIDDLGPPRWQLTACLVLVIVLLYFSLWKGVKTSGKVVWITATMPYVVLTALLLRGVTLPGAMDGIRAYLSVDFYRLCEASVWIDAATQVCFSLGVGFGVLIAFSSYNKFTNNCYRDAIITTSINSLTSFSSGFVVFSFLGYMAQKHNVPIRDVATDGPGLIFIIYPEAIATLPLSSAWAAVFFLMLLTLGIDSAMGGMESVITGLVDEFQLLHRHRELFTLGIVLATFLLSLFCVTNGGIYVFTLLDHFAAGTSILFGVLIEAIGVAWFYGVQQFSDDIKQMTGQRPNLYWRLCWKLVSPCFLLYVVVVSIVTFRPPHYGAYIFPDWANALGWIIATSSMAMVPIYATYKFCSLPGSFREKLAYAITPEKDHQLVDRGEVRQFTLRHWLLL
# T1 sequence (P31645 whole entry): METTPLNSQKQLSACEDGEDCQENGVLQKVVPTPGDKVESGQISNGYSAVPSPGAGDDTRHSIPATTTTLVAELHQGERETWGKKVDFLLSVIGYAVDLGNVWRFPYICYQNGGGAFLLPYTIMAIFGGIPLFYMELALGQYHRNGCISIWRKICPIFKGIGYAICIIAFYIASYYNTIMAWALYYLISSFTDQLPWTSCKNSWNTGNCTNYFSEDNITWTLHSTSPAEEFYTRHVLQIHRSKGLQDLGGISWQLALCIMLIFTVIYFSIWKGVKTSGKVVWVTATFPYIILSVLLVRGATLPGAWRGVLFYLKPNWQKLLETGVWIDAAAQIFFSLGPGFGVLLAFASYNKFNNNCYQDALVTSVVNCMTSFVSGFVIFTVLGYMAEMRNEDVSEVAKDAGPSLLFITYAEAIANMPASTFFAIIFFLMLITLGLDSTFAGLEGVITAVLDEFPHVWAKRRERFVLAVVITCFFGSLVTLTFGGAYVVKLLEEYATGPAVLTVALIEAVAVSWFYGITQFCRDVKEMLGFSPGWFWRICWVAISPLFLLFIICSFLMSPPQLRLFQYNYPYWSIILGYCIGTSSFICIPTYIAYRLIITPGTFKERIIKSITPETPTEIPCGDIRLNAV
# Chain of Sodium-dependent serotonin transporter (Rattus norvegicus, UniProt P31652) (P31652 whole entry): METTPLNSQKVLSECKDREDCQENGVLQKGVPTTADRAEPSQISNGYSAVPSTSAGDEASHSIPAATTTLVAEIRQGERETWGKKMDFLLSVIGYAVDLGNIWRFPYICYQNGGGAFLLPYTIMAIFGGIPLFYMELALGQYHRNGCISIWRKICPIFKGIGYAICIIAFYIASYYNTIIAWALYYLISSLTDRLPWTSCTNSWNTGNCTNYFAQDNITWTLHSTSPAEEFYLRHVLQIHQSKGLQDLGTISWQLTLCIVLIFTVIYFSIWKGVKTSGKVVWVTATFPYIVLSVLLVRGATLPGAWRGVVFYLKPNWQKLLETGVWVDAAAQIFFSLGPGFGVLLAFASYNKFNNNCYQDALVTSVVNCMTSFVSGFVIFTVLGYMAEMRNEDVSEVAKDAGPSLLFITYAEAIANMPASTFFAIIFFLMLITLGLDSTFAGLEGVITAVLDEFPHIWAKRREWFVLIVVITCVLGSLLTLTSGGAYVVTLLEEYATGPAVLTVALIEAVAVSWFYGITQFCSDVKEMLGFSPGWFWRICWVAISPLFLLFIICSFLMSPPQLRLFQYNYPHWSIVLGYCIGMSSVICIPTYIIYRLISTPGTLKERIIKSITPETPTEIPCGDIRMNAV
SMILES,Ki [1] [nM],Ki [2] [nM],Ki [3] [µM],Ki [4] [µM],Ki [5] [nM],Ki [6] [µM],Ki [7] [nM],Ki [8] [nM],Ki [9] [nM]
COC(=O)[C@H]1C2CC[C@@H]3C[C@@H]1/C(=C/c1ccccc1)CN23,2330,68,1.04,0.91,481,1.57,2400,1140,53
COC(=O)[C@H]1C2CC[C@@H]3C[C@@H]1/C(=C/c1ccc(F)cc1)CN23,–,–,–,–,6620,–,–,335,584
CC(=O)OC[C@H]1C2CC[C@@H]3C[C@@H]1/C(=C/c1ccccc1)CN23,–,–,–,–,1030,–,–,1050,450
OC[C@H]1C2CC[C@@H]3C[C@@H]1/C(=C/c1ccccc1)CN23,–,–,–,–,9690,–,–,5300,2830
COC(=O)[C@H]1C2CC[C@@H]3C[C@@H]1/C(=C/c1ccoc1)CN23,–,–,–,–,1880,–,–,498,164
COC(=O)[C@H]1C2CC[C@@H]3C[C@@H]1/C(=C/c1ccc(-c4ccccc4)cc1)CN23,–,–,–,–,477,–,–,614,12
COC(=O)[C@H]1C2CC[C@@H]3C[C@@H]1/C(=C/c1cccs1)CN23,–,–,–,–,268,–,–,2050,26
COC(=O)[C@H]1C2CC[C@@H]3C[C@@H]1/C(=C/c1ccc(OC)cc1)CN23,42,208,5.44,3.7,3130,3.6,53,56,187
COC(=O)[C@H]1C2CC[C@@H]3C[C@@H]1/C(=C\c1ccccc1)CN23,–,–,–,–,5070,–,–,7480,1530
COC(=O)[C@H]1C2CC[C@@H]3C[C@@H]1/C(=C/c1ccco1)CN23,–,–,–,–,2020,–,–,3680,111
OC[C@H]1C2CC[C@@H]3C[C@@H]1/C(=C/c1ccc(Cl)c(Cl)c1)CN23,–,–,–,–,21300,–,–,96,10500
COC(=O)[C@H]1C2CC[C@@H]3C[C@@H]1/C(=C/c1cccc4ccccc14)CN23,–,–,–,–,9720,–,–,121,5370
COC(=O)[C@H]1C2CC[C@@H]3C[C@@H]1/C(=C/c1ccc(Cl)c(Cl)c1)CN23 (stereo in doubt; 5b),0.56,640,3.77,> 10,1920,3.32,30,20,1000
